In ChEMBL document CHEMBL5500427, “Discovery of New Phenyltetrazolium Derivatives as Ferroptosis Inhibitors for Treating Ischemic Stroke: An Example Development from Free Radical Scavengers” (J Med Chem, 2024):
Calls of active or inactive are those of the source. No cut-off for these calls is given here.

Key:
HT-1080 [1] = assay: Anti-ferroptotic activity against Erastin-induced human HT-1080 cells assessed as inhibition of ferroptosis incubated for 72 hrs by CCK-8 assay; format: functional, cell-based; settings: Homo sapiens, HT-1080, 72 h; read-out: IC50
Mus musculus [2] = assay: Neuroprotective activity against transient middle cerebral artery occlusion induced ischemia stroke female SPF C57 mouse model assessed as reduction in neurological deficit score at 5 mg/kg,iv measured after 24 hrs; format: functional
Mus musculus [3] = assay: Neuroprotective activity against transient middle cerebral artery occlusion induced ischemia stroke female SPF C57 mouse model assessed as upregulation of GPX expression at 5 mg/kg,iv measured after 24 hrs by Western blotting analysis; format: functional, organism-based
Mus musculus [4] = assay: Neuroprotective activity against transient middle cerebral artery occlusion induced ischemia stroke female SPF C57 mouse model assessed as reduction in cerebral edema at 5 mg/kg,iv measured after 24 hrs; format: functional, organism-based
Mus musculus [5] = assay: Neuroprotective activity against transient middle cerebral artery occlusion induced ischemia stroke female SPF C57 mouse model assessed as upregulation of SLC7A11 expression at 5 mg/kg,iv measured after 24 hrs by Western blotting analysis; format: functional, organism-based
[6] = Antioxidant activity assessed as DPPH radical scavenging activity at 0.4 uM incubated for 30 mins by Beckman Coulter analysis relative to control; format: functional
[7] = Half life in ICR mouse at 1 mg/kg,iv administration measured upto 24 hrs by LC-MS/MS analysis; format: ADME, organism-based; settings: in vivo
[8] = AUC (0 to infinity) in ICR mouse at 1 mg/kg,iv administration measured upto 24 hrs by LC-MS/MS analysis; format: ADME, organism-based; settings: in vivo
[9] = Drug concentration in ICR mouse liver at 1 mg/kg,iv administration measured after 0.25 hrs by LC-MS/MS analysis; format: ADME, organism-based; settings: in vivo
HT-1080 [10] = assay: Anti-ferroptotic activity against Erastin-induced ferroptosis in human HT-1080 cells assessed as inhibition of lipid ROS production at 10 uM incubated for 24 hrs by C11-BODIPY 581/591 based flow cytometry relative to control; format: functional; settings: HT-1080, 24 h, values are per cent of control
[11] = Drug concentration in ICR mouse liver at 1 mg/kg,iv administration measured after 0.5 hrs by LC-MS/MS analysis; format: ADME, organism-based; settings: in vivo
HT-1080 [12] = assay: Anti-ferroptotic activity against Erastin-induced ferroptosis in human HT-1080 cells assessed as inhibition of lipid ROS production at 0.5 uM incubated for 24 hrs by C11-BODIPY 581/591 based flow cytometry relative to control; format: functional
[13] = Cytotoxicity against human H6C7 cells incubated for 2 hrs by CCK-8 assay; format: toxicity, cell-based; settings: h6c7, 2 h
[14] = Drug concentration in ICR mouse lung at 1 mg/kg,iv administration measured after 0.083 hrs by LC-MS/MS analysis; format: ADME, organism-based; settings: in vivo
[15] = Cmax in ICR mouse at 1 mg/kg,iv administration measured upto 24 hrs by LC-MS/MS analysis; format: ADME, organism-based; settings: in vivo
[16] = Drug concentration in ICR mouse brain at 1 mg/kg,iv administration measured after 0.25 hrs by LC-MS/MS analysis; format: ADME, organism-based; settings: in vivo
[17] = Drug concentration in ICR mouse kidney at 1 mg/kg,iv administration measured after 0.5 hrs by LC-MS/MS analysis; format: ADME, organism-based; settings: in vivo
[18] = Drug concentration in ICR mouse liver at 1 mg/kg,iv administration measured after 1 hrs by LC-MS/MS analysis; format: ADME, organism-based; settings: in vivo
N2a [19] = assay: Cytoprotective activity against oxygen-glucose deprivation/reoxygenation induced cell injury in mouse N2a cells assessed as upregulation of GPX4 expression at 1 uM incubated for 2 hrs under hypoxia condition and measured after 24 hrs by Western blotting analysis; format: functional, cell-based; settings: time 26.0 hrs
Mus musculus [20] = assay: Neuroprotective activity against transient middle cerebral artery occlusion induced ischemia stroke female SPF C57 mouse model assessed as reduction in cerebral infarct volume at 5 mg/kg,iv measured after 24 hrs by TTC staining based analysis relative to control; format: functional; set-up: scale not given: the % may be the effect or the level left
[21] = Drug concentration in ICR mouse lung at 1 mg/kg,iv administration measured after 0.5 hrs by LC-MS/MS analysis; format: ADME, organism-based; settings: in vivo
[22] = Drug concentration in ICR mouse liver at 1 mg/kg,iv administration measured after 0.083 hrs by LC-MS/MS analysis; format: ADME, organism-based; settings: in vivo
[23] = Drug concentration in ICR mouse kidney at 1 mg/kg,iv administration measured after 1 hrs by LC-MS/MS analysis; format: ADME, organism-based; settings: in vivo
[24] = AUC (0 to t) in ICR mouse at 1 mg/kg,iv administration measured upto 24 hrs by LC-MS/MS analysis; format: ADME, organism-based; settings: in vivo
[25] = Drug concentration in ICR mouse kidney at 1 mg/kg,iv administration measured after 0.25 hrs by LC-MS/MS analysis; format: ADME, organism-based; settings: in vivo
HEK293 = assay: Cytotoxicity against human HEK293 cells incubated for 2 hrs by CCK-8 assay; format: toxicity, cell-based; settings: hek293, 2 h
[26] = Apparent permeability of compound at 10 uM incubated for 16 hrs by PAMPA based LC-MS/MS analysis; format: ADME
N2a [27] = assay: Cytoprotective activity against oxygen-glucose deprivation/reoxygenation induced cell injury in mouse N2a cells assessed as increase in cell viability at 1 uM incubated for 2 hrs under hypoxia condition and measured after 24 hrs; format: functional, cell-based; settings: time 26.0 hrs
[28] = Drug concentration in ICR mouse kidney at 1 mg/kg,iv administration measured after 0.083 hrs by LC-MS/MS analysis; format: ADME, organism-based; settings: in vivo
[29] = Drug concentration in ICR mouse brain at 1 mg/kg,iv administration measured after 0.5 hrs by LC-MS/MS analysis; format: ADME, organism-based; settings: in vivo
N2a [30] = assay: Cytoprotective activity against oxygen-glucose deprivation/reoxygenation induced cell injury in mouse N2a cells assessed as upregulation of SLC7A11 expression at 1 uM incubated for 2 hrs under hypoxia condition and measured after 24 hrs by Western blotting analysis; format: functional, cell-based; settings: time 26.0 hrs
[31] = Drug concentration in ICR mouse lung at 1 mg/kg,iv administration measured after 0.25 hrs by LC-MS/MS analysis; format: ADME, organism-based; settings: in vivo
[32] = Drug concentration in ICR mouse brain at 1 mg/kg,iv administration measured after 0.083 hrs by LC-MS/MS analysis; format: ADME, organism-based; settings: in vivo
[33] = Tmax in ICR mouse at 1 mg/kg,iv administration measured upto 24 hrs by LC-MS/MS analysis; format: ADME, organism-based; settings: in vivo
[34] = Cytotoxicity against human L02 cells incubated for 2 hrs by CCK-8 assay; format: toxicity, cell-based
HT-1080 [35] = assay: Anti-ferroptotic activity against Erastin-induced human HT-1080 cells assessed as inhibition of ferroptosis incubated for 24 hrs by Alamar blue dye based assay; format: functional, cell-based; settings: HT-1080, 24 h

## O=C1c2c(O)cc(O)cc2O[C@H](c2ccc(O)c(O)c2)[C@H]1O [(+)-TAXIFOLIN]
HT-1080 [1]
  IC50: > 10000 nM

## COc1cc(-c2nnn(C)n2)ccc1NC1CCCCC1
HT-1080 [1]
  IC50: > 1000 nM

## Cn1nnc(-c2ccc(N)c(NC3CCCCC3)c2)n1
Mus musculus [2]
  Activity: 2
Mus musculus [3]
  Activity: Active
Mus musculus [4]
  Activity: Active
Mus musculus [5]
  Activity: Active
[6]
  inhibition: 41.3%
[7]
  half-life: 6 min
[8]
  AUC(0-inf): 95.6 ng·h/mL
HT-1080 [1]
  IC50: 22 nM
[9]
  Ct: 0.24 mg/kg
HT-1080 [10]
  response, % of control at 10 µM: 0.57%
[11]
  Ct: 0.09 mg/kg
HT-1080 [12]
  inhibition at 0.5 µM: 0.3%
[13]
  Activity: Toxic
[14]
  Ct: 0.37 mg/kg
[15]
  Cmax: 367 ng/mL
[16]
  Ct: 0.04 mg/kg
[17]
  Ct: 0.12 mg/kg
[18]
  Ct: 0.02 mg/kg
N2a [19]
  Activity: Active
Mus musculus [20]
  Activity: 12.03%
[21]
  Ct: 0.1 mg/kg
[22]
  Ct: 0.32 mg/kg
[23]
  Ct: 0.03 mg/kg
[24]
  AUC(0-t) at 24 h: 91.5 ng·h/mL
[25]
  Ct: 0.38 mg/kg
HEK293
  Activity: Toxic
[26]
  Papp at 16 h, 10 µM: 3.89 ×10⁻⁶ cm/s
N2a [27]
  Activity: Active
[28]
  Ct: 0.41 mg/kg
[29]
  Ct: 0.02 mg/kg
N2a [30]
  Activity: Active
[31]
  Ct: 0.19 mg/kg
[32]
  Ct: 0.09 mg/kg
[33]
  Tmax: 4.8 min

## CN(c1ccc(-c2nnn(C)n2)cc1)C1CCCCC1
HT-1080 [1]
  IC50: > 10000 nM

## CNc1ccc(-c2nnn(C)n2)cc1
HT-1080 [1]
  IC50: 8220 nM

## Cn1nnc(-c2ccc(NC3CCCCC3)c(N)c2)n1
HT-1080 [1]
  IC50: 30 nM

## Cn1nnc(-c2ccc(O)c(NC3CCCCC3)c2)n1
HT-1080 [1]
  IC50: > 1000 nM

## Cn1nnc(-c2cc(N)c(NC3CCCCC3)cc2F)n1
[6]
  inhibition: 35.3%
HT-1080 [1]
  IC50: 49 nM
[34]
  IC50 at 2 h: 12300 nM
N2a [27]
  Activity: Active

## CCCCCCCCNc1ccc(-c2nnn(C)n2)cc1N
HT-1080 [1]
  IC50: 497 nM

## CCn1nnc(-c2ccc(NC3CCCCC3)cc2)n1
HT-1080 [1]
  IC50: 8510 nM

## Cn1nnc(-c2c(F)cc(NC3CCCCC3)cc2F)n1
HT-1080 [1]
  IC50: > 1000 nM

## COc1ccc(Nc2ccc(-c3nnn(C)n3)cc2NC2CCCCC2)cn1
HT-1080 [1]
  IC50: 75 nM

## c1cc(-c2nn[nH]n2)ccc1NC1CCCCC1
HT-1080 [1]
  IC50: > 10000 nM

## COc1ccc(Nc2ccc(-c3nnn(C)n3)cc2NC2CCCCC2)cc1
HT-1080 [1]
  IC50: 81 nM

## Cn1nnc(-c2cccc(NC3CCCCC3)c2N)n1
HT-1080 [1]
  IC50: > 1000 nM

## O=S1(=O)CCN(Cc2cc(NC3CCOCC3)c3[nH]c(-c4ccccc4)cc3c2)CC1
HT-1080 [1]
  IC50: 6000 nM

## Cn1nnc(-c2ccc(NC3CCCCC3)cc2Cl)n1
HT-1080 [1]
  IC50: > 1000 nM

## CCOC(=O)c1ccc(NC2CCCCC2)c(NCc2ccccc2)c1
HT-1080 [35]
  IC50: 6 nM

## Cn1nnc(-c2cnc(NC3CCCCC3)s2)n1
HT-1080 [1]
  IC50: > 1000 nM
